Reference: ChEMBL document CHEMBL1773047, “Antiparasitic compounds from Cupania cinerea with activities against Plasmodium falciparum and Trypanosoma brucei rhodesiense” (J Nat Prod, 2011)
pIC50: −log10 of the molar value.

Columns and labels:
[1] = tested on: Trypanosoma brucei rhodesiense; test: Antiparasitic activity against Trypanosoma brucei rhodesiense STIB 900 bloodstream form after 72 hrs by microplate fluorimetry; type: functional, organism-based; details: STIB 900, 72 h
L6 = test: Cytotoxicity against rat L6 cells after 72 hrs by microplate fluorimetry; type: cell-based; details: L6, 72 h
Plasmodium falciparum = test: Antiplasmodial activity against chloroquine- and pyrimethamine-resistant Plasmodium falciparum K1 infected in human red blood cells assessed as [3H]hypoxanthine incorporation after 48 hrs by liquid scintillation counting; type: functional, organism-based

Compound	pIC50 [1]	pIC50 (L6)	pIC50 (Plasmodium falciparum)
CC(=O)O[C@@H]1[C@@H](OC(C)=O)[C@H](C)O[C@@H](O[C@H]2[C@H](OC/C=C(\C)CC/C=C(\C)CC/C=C(\C)CCC=C(C)C)O[C@H](CO)[C@@H](O)[C@@H]2O)[C@@H]1OC(C)=O	4.80	5.06	5.68
CC(C)=CCCC(C)C1CC=C(C)C(O)C1O (configuration not stated)	4.42	< 4.05	< 4.70
CC(C)=CCC[C@H](C)[C@@H]1C=C[C@](C)(O)[C@@H](O)C1	4.21	< 4.05	< 4.70
CC(C)[C@@]12CC[C@]3(C)[C@H]4CC[C@@H]5[C@@]6(C)CCC(=O)C(C)(C)[C@@H]6CC[C@@]5(C)[C@]4(C)CC[C@@]13O2	< 4.05	< 4.05	< 5.00
C=C1CC[C@@H]2O[C@]2(C)CC[C@@H]2[C@@H]1CC2(C)C	< 4.05	< 4.05	< 4.60
C=C(C)[C@@H]1CC[C@]2(CO)CC[C@]3(C)[C@H](CC[C@@H]4[C@@]5(C)CCC(=O)C(C)(C)[C@@H]5CC[C@]43C)[C@@H]12 [BETULONE]	4.72	4.65	5.52
CC(=O)OC[C@H]1O[C@@H](OC/C=C(\C)CC/C=C(\C)CC/C=C(\C)CCC=C(C)C)[C@H](O[C@@H]2O[C@@H](C)[C@H](OC(C)=O)[C@@H](OC(C)=O)[C@H]2OC(C)=O)[C@@H](O)[C@@H]1O [CUPACINOSIDE]	5.34	4.94	5.89
CC1(C)OC(=O)CC[C@]2(C)[C@H]3CC[C@H]4[C@@](C)(CC[C@@]5(C)C(C)(C)CCC[C@]45C)O[C@]3(C)CC[C@@H]12 [CUPACINOXEPIN]	4.15	< 4.05	5.06
CCCCCC(=O)Cc1cc(OC)cc(O)c1C(=O)Oc1cc(CC(=O)CCCCC)c(C(=O)OC)c(OC)c1 [GUSTASTATIN]	4.71	< 4.05	< 5.05
COc1cc(C)c2c(=O)c3c(O)cc(OC)cc3oc2c1 [LICHEXANTHONE]	< 4.05	4.28	< 4.70
C=C(C)[C@@H]1CC[C@]2(C)CC[C@]3(C)[C@H](CC[C@@H]4[C@@]5(C)CCC(=O)C(C)(C)[C@@H]5CC[C@]43C)[C@@H]12 [LUPENONE]	< 4.05	< 4.05	5.33
COc1cc2ccc(=O)oc2cc1O [SCOPOLETIN]	< 4.05	< 4.05	< 4.60
CC1(C)CC[C@]2(C)CC=C3[C@]4(C)CC[C@H]5C(C)(C)[C@@H](O)CC[C@]5(C)[C@H]4CC[C@@]3(C)[C@@H]2C1 [TARAXEROL]	4.98	< 4.05	5.07
CC1(C)CC[C@]2(C)CC=C3[C@]4(C)CC[C@H]5C(C)(C)C(=O)CC[C@]5(C)[C@H]4CC[C@@]3(C)[C@@H]2C1 [TARAXERONE]	< 4.05	< 4.05	< 5.00
